The text below walks through data of ChEMBL document CHEMBL1158282, “Iridoid Molluscicidal Compounds from Apodytes dimidiata” (1996).

In this experiment the test system is Bulinus africanus. Description: Molluscicidal activity against Bulinus africanus. As to conditions: for LC50: Bulinus africanus, read-out: LD50 (the source's name). It is filed as functional.

Values after ≈ are worked out from the molar mass of the structure shown.

Consider `COC(=O)C1=CO[C@@H](O)[C@@H]2C(CO)=CC[C@H]12` [GENIPIN], for which the LD90 is listed as 32.57 ppm and the LC50 was 25.3 µg/mL (≈ 112 µM).

Turning to `COC(=O)C1=CO[C@@H](O)[C@@H]2C(COC(C)=O)=CC[C@H]12`, the LD90 came out at 39.4 ppm and the LC50 worked out at 21.7 µg/mL (≈ 81 µM).
